We go through 29 compounds from patent US20110098288A1, “SULFONAMIDES AS ZAP-70 INHIBITORS” (priority 2008, published 2011).

For the experiment, the target named is T1, ZAP-70 (Homo sapiens, UniProt P43403).
T1 construct: endogenous in cells; host or cells: cell lysate
T1 sequence (P43403 1-619): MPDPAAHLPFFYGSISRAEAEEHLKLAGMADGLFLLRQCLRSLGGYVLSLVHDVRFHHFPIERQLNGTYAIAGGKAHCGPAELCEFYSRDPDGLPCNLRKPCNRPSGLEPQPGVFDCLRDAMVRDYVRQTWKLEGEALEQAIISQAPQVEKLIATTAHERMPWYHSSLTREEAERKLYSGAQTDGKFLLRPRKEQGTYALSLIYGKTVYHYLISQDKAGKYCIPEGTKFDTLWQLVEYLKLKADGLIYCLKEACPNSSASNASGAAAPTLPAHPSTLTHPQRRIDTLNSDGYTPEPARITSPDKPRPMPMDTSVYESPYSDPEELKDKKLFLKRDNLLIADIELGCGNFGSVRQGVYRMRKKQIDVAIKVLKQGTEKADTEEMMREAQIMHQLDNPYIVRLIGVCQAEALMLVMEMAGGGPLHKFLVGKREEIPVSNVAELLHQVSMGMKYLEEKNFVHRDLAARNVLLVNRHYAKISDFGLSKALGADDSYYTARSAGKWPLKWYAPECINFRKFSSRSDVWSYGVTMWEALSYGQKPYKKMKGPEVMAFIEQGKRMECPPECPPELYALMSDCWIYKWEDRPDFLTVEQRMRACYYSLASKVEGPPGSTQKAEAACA
In words: ZAP-70 kinobeads assay. Format: binding. The following applies: competition with immobilized aminopyrido-pyrimidine ligand 24 in cell lysate; ZAP-70 detected by dot blot. The protocol:
The compounds of the present invention as described in the previous examples can be tested in the ZAP-70 kinobeads assay as described (EP-A 1862802 and WO-A 2007/137867). Briefly, test compounds (at various concentrations) and the affinity matrix with the immobilized aminopyrido-pyrimidine ligand 24 are added to cell lysate aliquots and allowed to bind to the proteins in the lysate sample. After the incubation time the beads with captured proteins are separated from the lysate. Bound proteins are then eluted and the presence ZAP-70 is detected and quantified using a specific antibody in a dot blot procedure and the Odyssey infrared detection system. Conventionally, ZAP-70 kinase activity can be measured using purified or recombinant enzyme in a solution-based assay with protein or peptide substrates (Isakov et al., 1996, J. Biol. Chem. 271(26), 15753-15761; Moffat et al., 1999, Bioorg. Med. Chem. Letters 9, 3351-3356).
Broadly, the IC50 is the midpoint of a concentration-inhibition curve. Lower therefore signals greater potency. `COc1cc(Nc2ncc(F)c(Nc3ccc(OCCCN4CCCCC4)cc3NS(C)(=O)=O)n2)cc(OC)c1OC` [Example 185, N-(2-(5-fluoro-2-(3,4,5-trimethoxyphenylamino)pyrimidin-4-ylamino)-5-(3-(piperidin-1-yl)propoxy)phenyl)methanesulfonamide]: the half-maximal inhibitory concentration (IC50) was 100 to 1000 nM.

As for `COc1cc(Nc2ncc(F)c(Nc3cc(C)cc(C)c3NS(C)(=O)=O)n2)cc(OC)c1OC` [Example 186, N-(2-(5-fluoro-2-(3,4,5-trimethoxyphenylamino)pyrimidin-4-ylamino)-4,6-dimethylphenyl)methanesulfonamide], the IC50 fell in the range of 1000 to 10000 nM.

Compound `COc1ccc(Nc2nc(Nc3cc(OC)c(OC)c(OC)c3)ncc2Cl)c(NS(C)(=O)=O)c1F` [Example 187, N-(6-(5-chloro-2-(3,4,5-trimethoxyphenylamino)pyrimidin-4-ylamino)-2-fluoro-3-methoxyphenyl)methanesulfonamide] gave a half-inhibitory concentration (IC50) of 100 to 1000 nM.

In turn, `CS(=O)(=O)Nc1ccccc1Nc1nc(Nc2cccc(-n3cnnn3)c2)ncc1F` [Example 188, N-(2-(2-(3-(1H-tetrazol-1-yl)phenylamino)-5-fluoropyrimidin-4-ylamino)phenyl)methanesulfonamide] registered a 50% inhibitory concentration (IC50) of 1000 to 10000 nM.

Turning to `Cc1nc(-c2cccc(Nc3ncc(F)c(Nc4ccccc4NS(C)(=O)=O)n3)c2)no1` [Example 189, N-(2-(5-fluoro-2-(3-(5-methyl-1,2,4-oxadiazol-3-yl)phenylamino)pyrimidin-4-ylamino)phenyl)methanesulfonamide], the half-maximal inhibitory concentration (IC50) was 1000 to 10000 nM.

The compound `CS(=O)(=O)Nc1ccccc1Nc1nc(Nc2cccc(-c3nnn[nH]3)c2)ncc1F` [Example 190, N-(2-(2-(3-(1H-tetrazol-5-yl)phenylamino)-5-fluoropyrimidin-4-ylamino)phenyl)methanesulfonamide] gave an IC50 of 1000 to 10000 nM.

`Cc1n[nH]c(-c2ccc(Nc3ncc(F)c(Nc4ccccc4NS(C)(=O)=O)n3)cc2)n1` [Example 191, N-(2-(5-fluoro-2-(4-(3-methyl-1H-1,2,4-triazol-5-yl)phenylamino)pyrimidin-4-ylamino)phenyl)methanesulfonamide] had an IC50 of 1000 to 10000 nM.

Regarding `Cc1nc(-c2ccc(Nc3ncc(F)c(Nc4ccccc4NS(C)(=O)=O)n3)cc2)cs1` [Example 192, N-(2-(5-fluoro-2-(4-(2-methylthiazol-4-yl)phenylamino)pyrimidin-4-ylamino)phenyl)methanesulfonamide], the IC50 was 1000 to 10000 nM.

For the compound `CS(=O)(=O)Nc1ccccc1Nc1nc(Nc2cccc(-c3cnco3)c2)ncc1F` [Example 193, N-(2-(5-fluoro-2-(3-(oxazol-5-yl)phenylamino)pyrimidin-4-ylamino)phenyl)methanesulfonamide], the half-maximal inhibitory concentration (IC50) was 100 to 1000 nM.

The compound `Cc1nnnn1-c1cccc(Nc2ncc(F)c(Nc3ccccc3NS(C)(=O)=O)n2)c1` [Example 194, N-(2-(5-fluoro-2-(3-(5-methyl-1H-tetrazol-1-yl)phenylamino)pyrimidin-4-ylamino)phenyl)methanesulfonamide] returned a half-inhibitory concentration (IC50) of 1000 to 10000 nM.

`CS(=O)(=O)Nc1ccccc1Nc1nc(Nc2ccc(-n3cnnn3)cc2)ncc1F` [Example 195, N-(2-(2-(4-(1H-tetrazol-1-yl)phenylamino)-5-fluoropyrimidin-4-ylamino)phenyl)methanesulfonamide] displayed an IC50 of 1000 to 10000 nM.

The compound `CS(=O)(=O)Nc1ccccc1Nc1nc(Nc2ccc(C#N)cc2)ncc1F` [Example 196, N-(2-(2-(4-cyanophenylamino)-5-fluoropyrimidin-4-ylamino)phenyl)methanesulfonamide] yielded an IC50 of 1000 to 10000 nM.

Consider `Cc1nc(-c2ccc(Nc3ncc(F)c(Nc4ccccc4NS(C)(=O)=O)n3)cc2)no1` [Example 197, N-(2-(5-fluoro-2-(4-(5-methyl-1,2,4-oxadiazol-3-yl)phenylamino)pyrimidin-4-ylamino)phenyl)methanesulfonamide], for which the IC50 lay within 1000 to 10000 nM.

The compound `CS(=O)(=O)Nc1ccccc1Nc1nc(Nc2ccc(-n3cncn3)cc2)ncc1F` [Example 198, N-(2-(2-(4-(1H-1,2,4-triazol-1-yl)phenylamino)-5-fluoropyrimidin-4-ylamino)phenyl)methanesulfonamide] yielded an IC50 of 100 to 1000 nM.

Consider `Cc1nnnn1-c1ccc(Nc2ncc(F)c(Nc3ccccc3NS(C)(=O)=O)n2)cc1` [Example 199, N-(2-(5-fluoro-2-(4-(5-methyl-1H-tetrazol-1-yl)phenylamino)pyrimidin-4-ylamino)phenyl)methanesulfonamide], for which the half-maximal inhibitory concentration (IC50) lay in the range of 100 to 1000 nM.

Turning to `CS(=O)(=O)Nc1ccccc1Nc1nc(Nc2cccc(C#N)c2)ncc1F` [Example 200, N-(2-(2-(3-cyanophenylamino)-5-fluoropyrimidin-4-ylamino)phenyl)methanesulfonamide], the IC50 lay within 1000 to 10000 nM.

With `Cn1ccc(-c2cccc(Nc3ncc(F)c(Nc4ccccc4NS(C)(=O)=O)n3)c2)n1` [Example 201, N-(2-(5-fluoro-2-(3-(1-methyl-1H-pyrazol-3-yl)phenylamino)pyrimidin-4-ylamino)phenyl)methanesulfonamide], the IC50 was 1000 to 10000 nM.

Compound `Cc1ccc(C)n1-c1cccc(Nc2ncc(F)c(Nc3ccccc3NS(C)(=O)=O)n2)c1` [Example 202, N-(2-(2-(3-(2,5-dimethyl-1H-pyrrol-1-yl)phenylamino)-5-fluoropyrimidin-4-ylamino)phenyl)methanesulfonamide] yielded a 50% inhibitory concentration (IC50) of 1000 to 10000 nM.

`CS(=O)(=O)Nc1ccccc1Nc1nc(Nc2cccc(-n3cnnn3)c2)ncc1Cl` [Example 203, N-(2-(2-(3-(1H-tetrazol-1-yl)phenylamino)-5-chloropyrimidin-4-ylamino)phenyl)methanesulfonamide] registered a half-inhibitory concentration (IC50) of 100 to 1000 nM.

Compound `CS(=O)(=O)Nc1ccccc1Nc1nc(Nc2ccc(C#N)cc2)ncc1Cl` [Example 204, N-(2-(5-chloro-2-(4-cyanophenylamino)pyrimidin-4-ylamino)phenyl)methanesulfonamide] registered an IC50 of 1000 to 10000 nM.

As for `CS(=O)(=O)Nc1ccccc1Nc1nc(Nc2cccc(C#N)c2)ncc1Cl` [Example 205, N-(2-(5-chloro-2-(3-cyanophenylamino)pyrimidin-4-ylamino)phenyl)methanesulfonamide], the half-inhibitory concentration (IC50) was 100 to 1000 nM.

`CS(=O)(=O)Nc1ccccc1Nc1nc(Nc2cccc(-n3cccn3)c2)ncc1Cl` [Example 206, N-(2-(2-(3-(1H-pyrazol-1-yl)phenylamino)-5-chloropyrimidin-4-ylamino)phenyl)methanesulfonamide] came in with an IC50 of 100 to 1000 nM.

The compound `CS(=O)(=O)Nc1ccccc1Nc1nc(Nc2ccc(-n3cccn3)cc2)ncc1Cl` [Example 207, N-(2-(2-(4-(1H-pyrazol-1-yl)phenylamino)-5-chloropyrimidin-4-ylamino)phenyl)methanesulfonamide] displayed a half-inhibitory concentration (IC50) of 100 to 1000 nM.

`Cc1nc(-c2cccc(Nc3ncc(Cl)c(Nc4ccccc4NS(C)(=O)=O)n3)c2)no1` [Example 208, N-(2-(5-chloro-2-(3-(5-methyl-1,2,4-oxadiazol-3-yl)phenylamino)pyrimidin-4-ylamino)phenyl)methanesulfonamide]: the IC50 is 100 to 1000 nM.

`Cc1cc(C)n(-c2cccc(Nc3ncc(Cl)c(Nc4ccccc4NS(C)(=O)=O)n3)c2)n1` [Example 209, N-(2-(5-chloro-2-(3-(3,5-dimethyl-M-pyrazol-1-yl)phenylamino)pyrimidin-4-ylamino)phenyl)methanesulfonamide] came in with an IC50 of 1000 to 10000 nM.

`Cc1cc(C)n(-c2ccc(Nc3ncc(Cl)c(Nc4ccccc4NS(C)(=O)=O)n3)cc2)n1` [Example 210, N-(2-(5-chloro-2-(4-(3,5-dimethyl-1H-pyrazol-1-yl)phenylamino)pyrimidin-4-ylamino)phenyl)methanesulfonamide]: the half-maximal inhibitory concentration (IC50) lay in the range of 100 to 1000 nM.

Turning to `CS(=O)(=O)Nc1ccccc1Nc1nc(Nc2cccc(-n3cncn3)c2)ncc1Cl` [Example 211, N-(2-(2-(3-(1H-1,2,4-triazol-1-yl)phenylamino)-5-chloropyrimidin-4-ylamino)phenyl)methanesulfonamide], the 50% inhibitory concentration (IC50) fell in the range of 100 to 1000 nM.

With `CS(=O)(=O)Nc1ccccc1Nc1nc(Nc2ccc(-n3cncn3)cc2)ncc1Cl` [Example 212, N-(2-(2-(4-(1H-1,2,4-triazol-1-yl)phenylamino)-5-chloropyrimidin-4-ylamino)phenyl)methanesulfonamide], the IC50 was 100 to 1000 nM.

Compound `Cc1n[nH]c(-c2cccc(Nc3ncc(Cl)c(Nc4ccccc4NS(C)(=O)=O)n3)c2)n1` [Example 213, N-(2-(5-chloro-2-(3-(3-methyl-1H-1,2,4-triazol-5-yl)phenylamino)pyrimidin-4-ylamino)phenyl)methanesulfonamide] returned an IC50 of 100 to 1000 nM.
